Results on 24 compounds are retold here after patent US10245249B2, “Pharmaceutical compositions comprising nitroxyl donors” (Cardioxyl Pharmaceuticals, Inc., priority 2013, dated 2019).

Data set [1] in a line: HNO production determined via N2O quantification (GC headspace analysis). The data set is classed as physicochemical. As to conditions: PBS, 37° C. The text has this:
Nitrous oxide (N2O) is produced via the dimerization and dehydration of HNO, and is the most common marker for nitroxyl production (Fukuto et al., Chem. Res. Toxicol. 18:790-801 (2005)). […] Using either nitrous oxide gas or Angeli's salt (AS) as a standard, the relative amounts of N2O released from compounds of the disclosure was examined via gas chromatography (GC) headspace analysis.
A procedure for determining the relative amounts of N2O released from compounds of the disclosure is as follows. GC was performed on an Agilent gas chromatograph equipped with a split injector (10:1 splitting), microelectron capture detector, and a HP-MOLSIV 30 m×0.32 mm×25 μm molecular sieve capillary column. Helium was used as the carrier (4 mL/min) gas and nitrogen was used as the make-up (20 mL/min) gas. The injector oven and the detector oven were kept at 200° C. and 325° C., respectively. All nitrous oxide analyses were performed with the column oven held at a constant temperature of 200° C.
All gas injections were made using an automated headspace analyzer. Vial pressurization was 15 psi. The analyzer's sample oven, sampling valve, and transfer line were kept at 40° C., 45° C., and 50° C., respectively. The oven stabilization, vial pressurization, loop fill, loop equilibration, and sample injection times were 1.00 min., 0.20 min., 0.20 min., 0.05 min., and 1.00 min., respectively.
All determinations used a batch of nominal 20 mL headspace vials with volumes pre-measured for sample uniformity (actual vial volume varied by <2.0% relative standard deviation (n=6)). The average vial volume for the batch was determined from six randomly-selected vials by calculating the weight difference between the capped and sealed empty (i.e., air-filled) vial and the capped and sealed deionized water-filled vial using the known density of deionized water, then averaging. Blanks were prepared by sealing and capping two vials then purging each for 20 seconds with a gentle argon stream. Nitroxyl standards were prepared by sealing and capping four vials then purging each for 1 minute with a gentle stream, from a gas cylinder, of a 3000 ppm […].
CXL-1020 (N-hydroxy-2-methanesulfonylbenzene-1-sulfonamide) “standards” were prepared by, in duplicate, accurately weighing 10±0.5 mg of CXL-1020 and adding it to each 4 mL vial. Using an auto pipette, 1 mL of argon-purged anhydrous DMF (Sigma-Aldrich) was added to each 4 mL vial to form a CXL-1020 stock solution for each sample and the vials were capped and shaken and/or sonicated to insure complete dissolution upon visual observation. Using an auto pipette, 20 mL vials were charged with 5 mL of PBS (purged for at least 30 min. with argon prior to use), purged with argon for at least 20 sec., and sealed with a rubber septum. Using a 50 μL syringe, 50 μL of the CXL-1020 stock solution was injected into each 20 mL vial containing the PBS.
Samples were prepared as follows. In duplicate, 18±1 mg of each sample was accurately weighed into each 4 mL vial. Using an auto pipette, 1 mL of argon-purged anhydrous DMF was added to each 4 mL vial to form a sample stock solution for each sample and the vials were capped and shaken and/or sonicated to insure complete sample dissolution upon visual observation. Using an auto pipette, 20 mL vials were charged with 5 mL of PBS (purged for at least 30 min. with argon prior to use), purged with argon for at least 20 sec., and sealed with a rubber septum. The vials were equilibrated for at least 10 min. at 37° C. in a dry block heater. Thereafter, using a 50 μL syringe, 50 μL of a sample stock solution was injected into each 20 mL vial containing the PBS. The vials were then held at 37° C. in the dry block heater for a time period such that the sum of the time spent in the dry block heater plus the time spent in the automated headspace analyzer oven before sample injection equaled the desired incubation time. […]

Data set [2] in a line: In vitro stability (half-life) in phosphate buffered saline (PBS) pH 7.4. The class given is physicochemical. As to conditions: pH 7.4, 5 μM, PBS pH 7.4, 37° C., read-out: T1/2 (minutes) PBS. As for the experimental part: (§1) Certain compounds from Tables 1 and 2 and CXL-1020 were tested for their stability in phosphate buffered saline (PBS) and plasma. The assay system comprised (i) PBS, or plasma from rat, dog or human (at least 3 donors, male, pooled) at pH 7.4, and (ii) for tests conducted in plasma, an anticoagulant (sodium heparin or sodium citrate). Each test compound (5 μM) was incubated in PBS or plasma at 37° C. on a THERMOMIXER® with shaking. Three samples (n=3) were taken at each of seven sampling time points: 0, 10, 30, 60, 90, 180 and 360 minutes. The samples were immediately combined with 3 volumes (i.e., 3 times the volume of PBS or plasma) of acetonitrile containing 1% formic acid and an internal standard to terminate the reaction. AB SCIEX API 3000 LC-MS/MS analysis of the test compounds was performed without a standard curve. Half-lives (T1/2) of the test compounds were determined from graphs of the percent remaining values using the peak area response ratio. For compounds tested multiple times, the value provided in the Table represents an average of the replicate assays.

Data set [3] can be described thus: In vitro stability (half-life) in rat plasma. The class given is in vitro ADME. As to conditions: rat plasma pH 7.4 with anticoagulant, 37° C.; for half-life at 5 μM: male, rat, plasma, pH 7.4, 5 μM, read-out: T1/2 (minutes) Rat. As for the experimental part:
as §1

Take `O=S(=O)(NO)c1cccc2ccoc12` [Compound 4, N-Hydroxy-1-benzofuran-7-sulfonamide]: the “Relative N2O Yield (90 minutes incubation)” value in data set [1] was 64%. Also, the half-life at 5 μM in data set [2] worked out at 149 min.
Regarding `CC(=O)N1CCc2cc(Br)c(S(=O)(=O)NO)cc21` [Compound 9, 1-Acetyl-5-bromo-N-hydroxy-2,3-dihydro-1H-indole-6-sulfonamide], in data set [1], the “Relative N2O Yield (90 minutes incubation)” value was 53% and the “Relative N2O Yield (360 minutes incubation)” value was determined as 71%. In data set [3], the half-life at 5 μM was more than 360 min. Besides, the half-life at 5 μM in data set [2] is 2 min.
In the case of `O=S(=O)(NO)c1cc(CO)ccc1Cl` [Compound 10, 2-Chloro-N-hydroxy-5-(hydroxymethyl)benzene-1-sulfonamide], the “Relative N2O Yield (90 minutes incubation)” value in data set [1] is recorded as 91%. Moreover, the half-life at 5 μM in data set [2] amounted to 5 min.
As for `CC(=O)N1CCc2cc(Cl)c(S(=O)(=O)NO)cc21` [Compound 11, 1-Acetyl-5-chloro-N-hydroxy-2,3-dihydro-1H-indole-6-sulfonamide], in data set [1], the “Relative N2O Yield (90 minutes incubation)” value is listed as 55% and the “Relative N2O Yield (360 minutes incubation)” value stood at 81%. In data set [3], the half-life at 5 μM is less than 5 min. Further, the half-life at 5 μM in data set [2] was determined as 5 min.
For the compound `O=S(=O)(NO)c1cc(Cl)c(Cl)s1` [Compound 12, 4,5-Dichloro-N-hydroxythiophene-2-sulfonamide], the “Relative N2O Yield (90 minutes incubation)” value in data set [1] is 29%. Moreover, the half-life at 5 μM in data set [2] was 20 min.
Regarding `COc1ccc2cc(S(=O)(=O)NO)oc2c1` [Compound 13, N-Hydroxy-6-methoxy-1-benzofuran-2-sulfonamide], the “Relative N2O Yield (90 minutes incubation)” value in data set [1] turned out to be 86%. The half-life at 5 μM in data set [2] worked out at 42 min.
Turning to `Cc1ccc(S(=O)(=O)NO)c(F)c1` [Compound 14, 2-Fluoro-N-hydroxy-4-methylbenzene-1-sulfonamide], in data set [1], the “Relative N2O Yield (90 minutes incubation)” value is given as 48% and the “Relative N2O Yield (360 minutes incubation)” value was found to be 70%. Also, in data set [3], the half-life at 5 μM came out at 13 min. For the same compound, the half-life at 5 μM in data set [2] was 75 min.
For `O=S(=O)(NO)c1ccc2nsnc2c1` [Compound 15, N-Hydroxy-2,1,3-benzothiadiazole-5-sulfonamide], in data set [1], the “Relative N2O Yield (90 minutes incubation)” value is recorded as 59% and the “Relative N2O Yield (360 minutes incubation)” value was 71%. Further, the half-life at 5 μM in data set [2] stood at 63 min.
In the case of `CS(=O)(=O)c1csc(S(=O)(=O)NO)c1` [Compound 16, N-Hydroxy-4-methanesulfonylthiophene-2-sulfonamide], in data set [1], the “Relative N2O Yield (90 minutes incubation)” value is reported as 86%. Besides, the half-life at 5 μM in data set [2] stood at 20 min.
With `COc1ccc(Br)cc1S(=O)(=O)NO` [Compound 17, 5-Bromo-N-hydroxy-2-methoxybenzene-1-sulfonamide], the “Relative N2O Yield (90 minutes incubation)” value in data set [1] was found to be 53%. Moreover, in data set [1], the “Relative N2O Yield (360 minutes incubation)” value was found to be 77%. Also, the half-life at 5 μM in data set [3] is more than 360 min; in data set [2] it was 59 min.
The matching figures for `Cc1cc(S(=O)(=O)NO)c(C)cc1Cl` [Compound 18, 4-Chloro-N-hydroxy-2,5-dimethylbenzene-1-sulfonamide]: 56%, 73%, more than 360 min and 56 min.
Turning to `CCN(CC)C(=O)c1ccc(S(=O)(=O)NO)s1` [Compound 19, N,N-Diethyl-5-(hydroxysulfamoyl)thiophene-2-carboxamide], the “Relative N2O Yield (90 minutes incubation)” value in data set [1] turned out to be 77%. Moreover, in data set [2], the half-life at 5 μM was 44 min.
Turning to `Cc1ccc(F)cc1S(=O)(=O)NO` [Compound 20, 5-Fluoro-N-hydroxy-2-methylbenzene-1-sulfonamide], the “Relative N2O Yield (90 minutes incubation)” value in data set [1] came to 90%. In addition, the “T1/2 (minutes) Rat” value in data set [3] (5 μM) is 7 min.
Consider `O=C(c1ccc(S(=O)(=O)NO)s1)N1CCOCC1` [Compound 21, N-Hydroxy-5-(morpholine-4-carbonyl)thiophene-2-sulfonamide], for which the “Relative N2O Yield (90 minutes incubation)” value in data set [1] is recorded as 73.5%. The half-life at 5 μM in data set [3] worked out at 36 min; in data set [2] it was 39 min.
Take `CC(C)NC(=O)c1ccc(S(=O)(=O)NO)s1` [Compound 22, 5-(Hydroxysulfamoyl)-N-(propan-2-yl)thiophene-2-carboxamide]: the “Relative N2O Yield (90 minutes incubation)” value in data set [1] was determined as 85%. Besides, the half-life at 5 μM in data set [3] came to 23 min; in data set [2], 33 min.
With `CS(=O)(=O)c1ccc(S(=O)(=O)NO)s1` [Compound 23, N-Hydroxy-5-methanesulfonylthiophene-2-sulfonamide], in data set [2], the half-life at 5 μM worked out at 66 min.
Regarding `O=S(=O)(NO)c1cccc2nsnc12` [Compound 24, N-Hydroxy-2,1,3-benzothiadiazole-4-sulfonamide], in data set [1], the “Relative N2O Yield (90 minutes incubation)” value worked out at 60%. In data set [1], the “Relative N2O Yield (360 minutes incubation)” value was found to be 69%. Besides, the half-life at 5 μM turned out to be 14 min in data set [3] and 37 min in data set [2].
Regarding `COc1ccccc1S(=O)(=O)NO` [Compound 25, N-Hydroxy-2-methoxybenzene-1-sulfonamide], in data set [1], the “Relative N2O Yield (90 minutes incubation)” value worked out at 7% and the “Relative N2O Yield (360 minutes incubation)” value was found to be 28%. Moreover, in data set [2], the half-life at 5 μM came to 86 min.
In the case of `O=C(c1cc(S(=O)(=O)NO)cs1)N1CCOCC1` [Compound 28, N-Hydroxy-5-(morpholine-4-carbonyl)thiophene-3-sulfonamide], the “Relative N2O Yield (90 minutes incubation)” value in data set [1] was determined as 74%. In addition, the half-life at 5 μM in data set [2] is 136 min.
In the case of `Cc1nn(C)c(Cl)c1S(=O)(=O)NO` [Compound 30, 5-Chloro-N-hydroxy-1,3-dimethyl-1H-pyrazole-4-sulfonamide], in data set [1], the “Relative N2O Yield (90 minutes incubation)” value turned out to be 27%. Moreover, in data set [2], the half-life at 5 μM came to 385 min.
In the case of `Cn1cc(S(=O)(=O)NO)cn1` [Compound 31, N-Hydroxy-1-methyl-1H-pyrazole-4-sulfonamide], the half-life at 5 μM in data set [2] stood at 745 min.
Consider `O=S(=O)(NO)c1ccccn1` [Compound 32, N-Hydroxypyridine-2-sulfonamide], for which, in data set [1], the “Relative N2O Yield (90 minutes incubation)” value is 71%. The results for the half-life at 5 μM in data set [3] and in data set [2] were 32 min and 61 min, respectively.
On to `O=C(c1csc(S(=O)(=O)NO)c1)N1CCOCC1` [Compound 35, N-Hydroxy-4-(morpholine-4-carbonyl)thiophene-2-sulfonamide], for which the “Relative N2O Yield (90 minutes incubation)” value in data set [1] amounted to 100%. The half-life at 5 μM in data set [3] was 19 min; in data set [2], 58 min.
As to `O=S(=O)(NO)c1ccc(Cl)c(Cl)c1` [Compound 95, 3,4-Dichloro-N-hydroxybenzene-1-sulfonamide], the half-life at 5 μM in data set [3] and in data set [2] was more than 360 min in each case.
